# Assay results reported in patent US9271993B2, “Treatment of bacterial infectious diseases” (priority 2010, dated 2016).
# Like-named read-outs stand apart in the source and are kept apart here.
# What was measured:
# E. coli = assay: MIC against gram-negative bacteria; format: cell-based; conditions: Escherichia coli, read-out: MIC
# Source text: Agents Chemother. 2003, 47:1496-1502.
# M. avium-intracellulare = assay: Drug susceptibility of non-tuberculous slow-growing mycobacteria, MGIT960; format: cell-based
# M. kansasii = assay: as above; format: cell-based
# M. abscessus = assay: MIC against non-tuberculous rapidly-growing mycobacteria, microdilution; format: cell-based; conditions: Mycobacteroides abscessus; strain 500039/08 M. abscessus; read-out: minimal inhibitory concentration (MIC)
# Protocol: (§1) Activity of apramycin was assessed in standard microdilution assays and is expressed as minimal inhibitory concentration (MIC) in μg/ml.
# M. bolletii = assay: as above; format: cell-based; conditions: Mycobacteroides abscessus, read-out: minimal inhibitory concentration (MIC)
# Protocol: as §1
# M. massiliense = assay: as above; format: cell-based; conditions: Mycobacteroides abscessus, read-out: minimal inhibitory concentration (MIC)
# Protocol: as §1
# [1] = test system: Cochlear explants from newborn mice; assay: Cochleatoxicity in vitro, hair cell loss in cochlear explants; format: cell-based
# Protocol: FIG. 1: Cochleatoxicity in vitro
# (a) Dose-response relationship of drug-induced hair cell loss in cochlear explants. Hair cell loss was quantified along the entire length of the explant and plotted against drug concentration. %=% outer hair cells missing.
# Cochlear explants from newborn mice were treated with 0.5 mM aminoglycoside compound for 24 h; subsequently hair cell damage was assessed by epifluorescence microscopy.
# [2] = General toxicity in guinea pigs; format: in vivo; conditions: for observations (general toxicity): once daily for 14 days, monitored additional 14 days
# Source text: Guinea pigs received a systemic application of aminoglycosides once daily in the dosing indicated in Table 9 for 14 days and were then monitored for an additional 14 days.
# [3] = guinea pig
# Source text: “Treshold shift” is the difference in auditory threshold before and three weeks after treatment.
# Guinea pigs received a systemic application of aminoglycosides once daily in the dosing indicated for 14 days, and were allowed to rest for 14 days before post-treatment ABR was taken.
# [4] = test system: clinical methicillin resistant Staphylococcus aureus (MRSA) isolates; assay: MIC against clinical MRSA isolates, LB microdilution assay; conditions: Staphylococcus aureus, MRSA
# Protocol: Activity was assessed by determination of minimal inhibitory concentrations (MIC), as described in Pfister et al., Antimicrob. […] Cultures from single colonies were grown in LB medium and used for MIC tests in a microtiter plate format. Starting cultures contained 200 μl of bacterial cells at an optical density of 0.025 at 600 nm, and the respective drug was added in twofold series of dilution.
# bacterial ribosomes = assay: Ribosomal drug susceptibility (MIC) of recombinant bacteria; design: MIC, bacterial ribosomes: unit not given beside the values
# mitohybrid ribosomes = assay: as above; design: MIC, mitohybrid ribosomes: unit not given beside the values
# cytohybrid ribosomes = assay: as above; design: MIC, cytohybrid ribosomes: unit not given beside the values
smiles,measurement,setting,value
CNC1C(OC2OC(CO)C(N)C(O)C2O)OC2CC(N)C(OC3C(N)CC(N)C(O)C3O)OC2C1O (stereo not shown) [Apramycin],MIC,"E. coli; E. coli AG01, clin. isol. (Gm^S)",16 µg/mL
same,MIC,"E. coli; E. coli AG02, clin. isol (Gm^S)",16 to 32 µg/mL
same,MIC,"E. coli; E. coli AG03, clin. isol (Gm^R)",16 to 32 µg/mL
same,MIC,"E. coli; E. coli AG06, BM13",4 µg/mL
same,MIC,"E. coli; E. coli AG07, BM13/pIP135, resistance mechanism AAC(3)",8 µg/mL
same,MIC,"E. coli; E. coli AG08, BM13/pIP055, resistance mechanism ANT(2″)",4 µg/mL
same,MIC,"E. coli; E. coli AG09, AAC(6′)-1B, resistance mechanism AAC(6′)",8 µg/mL
same,MIC,"E. coli; E. coli AG36, HB101/pAT197, resistance mechanism ANT(4′)",4 µg/mL
same,MIC,"E. coli; E. coli AG37, HB101/pAG21-1, resistance mechanism APH(3′)",4 µg/mL
same,Activity (resistant/susceptible),"M. avium-intracellulare; strain 182034/06 M. avium-intracellulare, 1 μg/ml",R
same,Activity (resistant/susceptible),"M. avium-intracellulare; strain 182034/06 M. avium-intracellulare, 4 μg/ml",S
same,Activity (resistant/susceptible),"M. avium-intracellulare; strain 182034/06 M. avium-intracellulare, 10 μg/ml",S
same,Activity (resistant/susceptible),"M. avium-intracellulare; strain 182124/07 M. avium-intracellulare, 1 μg/ml",R
same,Activity (resistant/susceptible),"M. avium-intracellulare; strain 182124/07 M. avium-intracellulare, 4 μg/ml",S
same,Activity (resistant/susceptible),"M. avium-intracellulare; strain 182124/07 M. avium-intracellulare, 10 μg/ml",S
same,Activity (resistant/susceptible),"M. avium-intracellulare; strain 182550/07 M. avium-intracellulare, 1 μg/ml",R
same,Activity (resistant/susceptible),"M. avium-intracellulare; strain 182550/07 M. avium-intracellulare, 4 μg/ml",S
same,Activity (resistant/susceptible),"M. avium-intracellulare; strain 182550/07 M. avium-intracellulare, 10 μg/ml",S
same,Activity (resistant/susceptible),"M. kansasii; strain 177227/06 M. kansasii, 1 μg/ml",R
same,Activity (resistant/susceptible),"M. kansasii; strain 177227/06 M. kansasii, 4 μg/ml",S
same,Activity (resistant/susceptible),"M. kansasii; strain 177227/06 M. kansasii, 10 μg/ml",S
same,Activity (resistant/susceptible),"M. kansasii; strain 180235/06 M. kansasii, 1 μg/ml",R
same,Activity (resistant/susceptible),"M. kansasii; strain 180235/06 M. kansasii, 4 μg/ml",S
same,Activity (resistant/susceptible),"M. kansasii; strain 180235/06 M. kansasii, 10 μg/ml",S
same,MIC,M. abscessus,0.5 µg/mL
same,MIC,M. bolletii; strain 179639/10 M. bolletii,4 µg/mL
same,MIC,M. bolletii; strain 181739/08 M. bolletii,4 µg/mL
same,MIC,M. bolletii; strain 183177/08 M. bolletii,2 µg/mL
same,MIC,M. massiliense; strain 177217/10 M. massiliense,4 µg/mL
same,MIC,M. massiliense; strain 186139/07 M. massiliense,4 µg/mL
same,MIC,M. massiliense; strain 500044/09 M. massiliense,2 µg/mL
same,"In vitro cochleatoxicity (drug-induced hair cell loss in cochlear explants, dose-response)",[1],significantly less than that of gentamicin
same,Hair cell count,"[1]; mouse, 24 h, 0.5 mM",no hair cells missing (<5%)
same,inner and outer hair cells missing / lost,"[1]; mouse, 24 h, 0.5 mM",< 5%
same,observations (general toxicity),[2]; 152 mg/kg base (132 mg/kg gentamicin base equivalent),normal weight gain
same,observations (general toxicity),[2]; 184 mg/kg base (160 mg/kg gentamicin base equivalent),normal weight gain
same,observations (general toxicity),[2]; 217 mg/kg base (188 mg/kg gentamicin base equivalent),normal weight gain
same,observations (general toxicity),[2]; 355 mg/kg base (309 mg/kg gentamicin base equivalent),less weight gain
same,"Kidney histopathology, interpretation",[2]; 432 mg/kg,"Mild, multifocal interstitial lymphoplasmacytic inflammation"
same,observations (general toxicity),[2]; 432 mg/kg base (376 mg/kg gentamicin base equivalent),less weight gain
same,"Kidney histopathology, renal mass affected in the sections","[2]; 432 mg/kg, lymphoplasmacytic aggregates in the renal interstitium",less than 5%
same,"Kidney histopathology, interpretation",[2]; 649 mg/kg,"Mild, multifocal tubular nephrosis"
same,observations (general toxicity),[2]; 649 mg/kg base (564 mg/kg gentamicin base equivalent),less weight gain
same,"Kidney histopathology, renal mass affected in the sections","[2]; 649 mg/kg, foci of tubular degeneration and regeneration in the superficial cortex",less than 5%
same,necropsy findings at the end of the experiment,[2]; one animal each at 432 and 649 mg/kg,no significant lesions or gross findings were observed
same,"in vivo auditory response (auditory brain stem response, threshold shift at 12 kHz)",[3],substantially less affected
same,MIC,"[4]; MRSA AG038, strain 70-26S Gm^S",8 µg/mL
same,MIC,"[4]; MRSA AG040, strain 87-26S Gm^S",8 µg/mL
same,MIC,"[4]; MRSA AG041, strain 98-25S Gm^S",8 µg/mL
same,MIC,"[4]; MRSA AG042, strain 101-06R Gm^R",8 µg/mL
same,MIC,"[4]; MRSA AG043, strain 01-08R Gm^R",16 to 32 µg/mL
same,MIC,"[4]; MRSA AG044, strain 07-12R Gm^R",16 µg/mL
same,MIC,"[4]; MRSA AG045, strain 08-12R Gm^R",8 to 16 µg/mL
same,MIC,"[4]; MRSA AG046, strain 12-06R Gm^R",8 to 16 µg/mL
same,MIC,"[4]; MRSA AG047, strain 18-06R Gm^R",8 to 16 µg/mL
same,MIC,"[4]; MRSA AG048, strain 20-06R Gm^R",8 to 16 µg/mL
same,MIC,"[4]; MRSA AG049, strain 23-12R Gm^R",8 to 16 µg/mL
same,MIC,"[4]; MRSA AG050, strain 31-06R Gm^R",4 to 8 µg/mL
same,MIC,"[4]; MRSA AG051, strain 36-06R Gm^R",8 µg/mL
same,MIC,"[4]; MRSA AG052, strain 53-14I Gm^R",8 µg/mL
same,MIC,"[4]; MRSA AG053, strain 56-06R Gm^R",8 µg/mL
same,"MIC, bacterial ribosomes","bacterial ribosomes; Table 7, 72 h incubation",1-2
same,"MIC, wild type bacteria",bacterial ribosomes; Table 10,1.0 to 2.0 µg/mL
same,"MIC, mitohybrid ribosomes","mitohybrid ribosomes; Table 7, 72 h incubation",1024
same,"MIC, bacteria with mitohybrid ribosome",mitohybrid ribosomes; Table 10,>256.0 µg/mL
same,"MIC, cytohybrid ribosomes","cytohybrid ribosomes; Table 7, 72 h incubation",>1024
same,"MIC, bacteria with cytohybrid ribosome",cytohybrid ribosomes; Table 10,>256.0 µg/mL
